From patent publication US8461328B2, “Tricyclic heterocyclic compounds, compositions and methods of use thereof” (Genentech, Inc., priority 2010, dated 2013)

Tests used:
Type in all cases: biochemical
TYK2 = biological target: T1, TYK2 (Homo sapiens, UniProt P29597); experiment: TYK2 inhibition (Table 4)
T1 construct: made in house; host or cells: SF9 insect cells (baculovirus)
T1 sequence (P29597 873-1187): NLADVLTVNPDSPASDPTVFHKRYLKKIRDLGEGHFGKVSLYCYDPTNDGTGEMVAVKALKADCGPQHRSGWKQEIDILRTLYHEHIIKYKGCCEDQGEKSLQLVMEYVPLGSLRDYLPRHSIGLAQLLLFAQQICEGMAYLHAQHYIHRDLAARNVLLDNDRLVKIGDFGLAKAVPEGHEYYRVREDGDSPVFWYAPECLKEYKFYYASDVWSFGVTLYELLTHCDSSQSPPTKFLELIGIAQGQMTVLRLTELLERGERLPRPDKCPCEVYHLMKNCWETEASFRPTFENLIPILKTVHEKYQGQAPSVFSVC

JAK2 = biological target: T2, JAK2 (Homo sapiens, UniProt O60674); experiment: JAK2 inhibition (Table 4); conditions: read-out: JAK2 Ki
T2 construct: made in house; host or cells: SF9 insect cells (baculovirus)

JAK3 = biological target: T3, JAK3 (Homo sapiens, UniProt P52333); experiment: JAK3 inhibition (Table 4); conditions: read-out: JAK3 Ki
T3 construct: made in house; host or cells: SF9 insect cells (baculovirus)

JAK1 = biological target: T4, JAK1 (Homo sapiens, UniProt P23458); experiment: JAK1 inhibition (Table 4); conditions: read-out: JAK1 Ki
T4 construct: made in house; host or cells: SF9 insect cells (baculovirus)
T4 sequence (P23458 852-1154): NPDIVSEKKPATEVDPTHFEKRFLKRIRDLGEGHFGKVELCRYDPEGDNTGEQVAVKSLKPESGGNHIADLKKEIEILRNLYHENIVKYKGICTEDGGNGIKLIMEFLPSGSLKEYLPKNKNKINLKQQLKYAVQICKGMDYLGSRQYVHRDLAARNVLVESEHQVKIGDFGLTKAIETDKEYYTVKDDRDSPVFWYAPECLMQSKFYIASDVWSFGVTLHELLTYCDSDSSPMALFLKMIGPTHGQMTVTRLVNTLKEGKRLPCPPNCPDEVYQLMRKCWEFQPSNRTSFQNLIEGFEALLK

T2 sequence (O60674 812-1132): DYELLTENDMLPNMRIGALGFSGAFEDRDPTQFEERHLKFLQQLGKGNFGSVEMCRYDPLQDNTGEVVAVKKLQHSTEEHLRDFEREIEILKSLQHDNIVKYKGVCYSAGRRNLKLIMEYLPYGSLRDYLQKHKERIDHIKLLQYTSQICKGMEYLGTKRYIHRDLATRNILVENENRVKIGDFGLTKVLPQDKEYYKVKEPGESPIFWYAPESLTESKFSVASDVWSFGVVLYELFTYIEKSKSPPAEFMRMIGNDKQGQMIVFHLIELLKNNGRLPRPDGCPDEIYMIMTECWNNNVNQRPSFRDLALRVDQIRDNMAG
T3 sequence (P52333 783-1124): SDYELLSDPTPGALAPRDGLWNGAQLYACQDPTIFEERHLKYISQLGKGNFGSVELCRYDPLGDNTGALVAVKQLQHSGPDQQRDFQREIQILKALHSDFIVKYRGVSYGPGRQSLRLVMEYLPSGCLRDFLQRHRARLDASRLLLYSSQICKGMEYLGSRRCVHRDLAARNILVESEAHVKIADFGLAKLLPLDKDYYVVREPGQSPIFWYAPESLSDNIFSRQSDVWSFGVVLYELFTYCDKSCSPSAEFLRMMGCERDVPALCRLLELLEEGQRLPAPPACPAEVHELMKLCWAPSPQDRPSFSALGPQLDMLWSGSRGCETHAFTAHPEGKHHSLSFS

| Compound | Ki (TYK2) [nM] | Ki (JAK2) [nM] | Ki (JAK3) [nM] | Ki (JAK1) [nM] |
| --- | --- | --- | --- | --- |
| Cc1nc2cnc3[nH]ccc3c2n1C1CC2CCC1C2 (stereo not shown) [Example 121, 1-Bicyclo[2.2.1]hept-2-yl-2-methyl-1,6-dihydro-1,2,3,5,6-tetraaza-as-indacene] | 5.09 | 2.78 | 9.31 | 1.01 |
| Cc1nc2cnc3[nH]ccc3c2n1C1CC2CCC1C2 (stereo not shown) [Example 121a, 1-Bicyclo[2.2.1]hept-2-yl-2-methyl-1,6-dihydro-1,2,3,5,6-tetraaza-as-indacene] | 2.35 | 1.8 | 7.35 | 0.32 |
| CC(C)(C)OC(=O)N1CCC(C)(n2cnc3cnc4[nH]ccc4c32)CC1 [Example 132, 4-Methyl-4-(6H-1,2,3,5,6-tetraaza-as-indacen-1-yl)-piperidine-1-carboxylic acid tert-butyl ester] | 696 | 193 | 1120 | 25.4 |
| O=C(N[C@H]1CC[C@H](n2cnc3cnc4[nH]ccc4c32)CC1)OCC1CC1 [Example 140, Trans[4-(6H-1,2,3,5,6-Tetraaza-as-indacen-1-yl)-cyclohexyl]-carbamic acid cyclopropylmethyl ester] | 78.8 | 17.4 | 88.1 | 5.16 |
| O=C(N[C@H]1CC[C@H](n2cnc3cnc4[nH]ccc4c32)CC1)OC1CCNCC1 [Example 141, Trans[4-(6H-1,2,3,5,6-Tetraaza-as-indacen-1-yl)-cyclohexyl]-carbamic acid piperidin-4-yl ester] | 330 | 23.7 | 393 | 8.44 |
| CN([C@H]1CC[C@H](n2cnc3cnc4[nH]ccc4c32)CC1)S(C)(=O)=O [Example 142, Trans N-Methyl-N-[4-(6H-1,2,3,5,6-tetraaza-as-indacen-1-yl)-cyclohexyl]-methanesulfonamide] | 43.7 | 3.35 | 211 | 4.82 |
| CC(C)(C)OC(=O)N1CCC[C@H]1C(=O)N1CCC(n2cnc3cnc4[nH]ccc4c32)CC1 [Example 144, (S)-2-[4-(6H-1,2,3,5,6-Tetraaza-as-indacen-1-yl)-piperidine-1-carbonyl]-pyrrolidine-1-carboxylic acid tert-butyl ester] | 3160 | 382 | 3520 | 251 |
| N#CCN1CCC[C@H]1C(=O)N1CCC(n2cnc3cnc4[nH]ccc4c32)CC1 [Example 146, {(S)-2-[4-(6H-1,2,3,5,6-Tetraaza-as-indacen-1-yl)-piperidine-1-carbonyl]-pyrrolidin-1-yl}-acetonitrile] | 1730 | 190 | 2770 | 150 |
| CC(C)(O)[C@H]1CC[C@H](n2cnc3cnc4[nH]ccc4c32)CC1 [Example 148, Trans 2-[4-(6H-1,2,3,5,6-Tetraaza-as-indacen-1-yl)-cyclohexyl]-propan-2-ol] | 12.3 | 1.92 | 23.8 | 1.73 |
| O=C1CCC2(CCC(n3cnc4cnc5[nH]ccc5c43)CC2)N1 (stereo not shown) [Example 152, 8-(6H-1,2,3,5,6-Tetraaza-as-indacen-1-yl)-1-aza-spiro[4.5]decan-2-one] | 13.8 | 4.73 | 39.7 | 3.14 |
| CC(C)NC(=O)[C@H]1CC[C@H](n2nnc3cnc4[nH]ccc4c32)CC1 [Example 165, Trans 4-(6H-1,2,3,5,6-Pentaaza-as-indacen-1-yl)-cyclohexanecarboxylic acid isopropylamide] | 550 | 177 | 802 | 48.9 |
| O=C([C@H]1CC[C@H](n2cnc3cnc4[nH]ccc4c32)CC1)N1CCOCC1 [Example 166, Trans Morpholin-4-yl-[4-(6H-1,2,3,5,6-tetraaza-as-indacen-1-yl)-cyclohexyl]-methanone] | 1020 | 151 | 255 | 145 |
| N#Cc1nc2cnc3[nH]ccc3c2n1C1CCNCC1 [Example 170, 1-Piperidin-4-yl-1,6-dihydro-1,2,3,5,6-tetraaza-as-indacene-2-carbonitrile] | 956 | 334 | 1050 | 92.9 |

Second part, the molecule after the results:

| Ki (TYK2) [nM] | Ki (JAK2) [nM] | Ki (JAK3) [nM] | Ki (JAK1) [nM] | Compound |
| --- | --- | --- | --- | --- |
| 153 | 744 | 547 | 320 | CS(=O)(=O)N1CCC(n2c(CC3CCCC3)nc3cnc4[nH]ccc4c32)CC1 [Example 115, 2-Cyclopentylmethyl-1-(1-methanesulfonyl-piperidin-4-yl)-1,6-dihydro-1,2,3,5,6-tetraaza-as-indacene] |
| 322 | 76.9 | 58 | 19.7 | N#CCCN1CCC(n2c(CC3CCCC3)nc3cnc4[nH]ccc4c32)CC1 [Example 116, 3-[4-(2-Cyclopentylmethyl-6H-1,2,3,5,6-tetraaza-as-indacen-1-yl)-piperidin-1-yl]-propionitrile] |
| 1530 | 781 | 746 | 131 | CCCS(=O)(=O)N1CCC(n2c(CC(N)=O)nc3cnc4[nH]ccc4c32)CC1 [Example 117, 2-{1-[1-(Propane-1-sulfonyl)-piperidin-4-yl]-1,6-dihydro-1,2,3,5,6-tetraaza-as-indacen-2-yl}-acetamide] |
| 63.1 | 12 | 23.6 | 1.94 | CS(=O)(=O)NCCc1nc2cnc3[nH]ccc3c2n1C1CCN(CCC#N)CC1 [Example 118, N-(2-{1-[1-(2-Cyano-ethyl)-piperidin-4-yl]-1,6-dihydro-1,2,3,5,6-tetraaza-as-indacen-2-yl}-ethyl)-methanesulfonamide] |
| 1030 | 1310 | 1160 | 77.7 | COCC(=O)N1CCC(n2c(Cc3conc3C)nc3cnc4[nH]ccc4c32)CC1 [Example 119, 2-Methoxy-1-{4-[2-(3-methyl-isoxazol-4-ylmethyl)-6H-1,2,3,5,6-tetraaza-as-indacen-1-yl]-piperidin-1-yl}-ethanone] |
| 82.1 | 10.3 | 11.2 | 5.56 | CCCc1nc2cnc3[nH]ccc3c2n1C1CCN(CCC#N)CC1 [Example 120, 3-[4-(2-Propyl-6H-1,2,3,5,6-tetraaza-as-indacen-1-yl)-piperidin-1-yl]-propionitrile] |
| 31 | 7.14 | 23.6 | 3.55 | CCc1nc2cnc3[nH]ccc3c2n1C1CCN(C(C)CC#N)CC1 (stereo not shown) [Example 123, 3-[4-(2-Ethyl-6H-1,2,3,5,6-tetraaza-as-indacen-1-yl)-piperidin-1-yl]-butyronitrile] |
| 225 | 33.2 | 845 | 24.5 | CC(C)(C)OC(=O)N1CCC(n2cnc3cnc4[nH]ccc4c32)CC1 [Example 124, 4-(6H-1,2,3,5,6-Tetraaza-as-indacen-1-yl)-piperidine-1-carboxylic acid tert-butyl ester] |
| 2330 | 23.8 | 32.6 | 20.6 | CNC(=O)c1nc2cnc3[nH]ccc3c2n1C1CCN(Cc2ccccc2)CC1 [Example 159, 1-(1-Benzyl-piperidin-4-yl)-1,6-dihydro-1,2,3,5,6-tetraaza-as-indacene-2-carboxylic acid methylamide] |
| 100 | 70.6 | 10.7 | 8.43 | N#CCCN1CCC(n2c(CC(=O)N3CCOCC3)nc3cnc4[nH]ccc4c32)CC1 [Example 160, 3-{4-[2-(2-Morpholin-4-yl-2-oxo-ethyl)-6H-1,2,3,5,6-tetraaza-as-indacen-1-yl]-piperidin-1-yl}-propionitrile] |
| 386 | 31.8 | 20.5 | 11.6 | CC(C)(C)OC(=O)N1CC(c2nc3cnc4[nH]ccc4c3n2C2CCN(Cc3ccccc3)CC2)C1 [Example 161, 3-[1-(1-Benzyl-piperidin-4-yl)-1,6-dihydro-1,2,3,5,6-tetraaza-as-indacen-2-yl]azetidine-1-carboxylic acid tert-butyl ester] |
| 677 | 23.1 | 46.8 | 7.45 | c1ccc(CN2CCC(n3c(C4CNC4)nc4cnc5[nH]ccc5c43)CC2)cc1 [Example 162, 2-Azetidin-3-yl-1-(1-benzyl-piperidin-4-yl)-1,6-dihydro-1,2,3,5,6-tetraaza-as-indacene] |
| 607 | 10 | 28.1 | 11.2 | N#Cc1nc2cnc3[nH]ccc3c2n1C1CCN(Cc2ccccc2)CC1 [Example 163, 1-(1-Benzyl-piperidin-4-yl)-1,6-dihydro-1,2,3,5,6-tetraaza-as-indacene-2-carbonitrile] |
| 820 | 14.1 | 6.48 | 10.4 | FC(F)(F)c1nc2cnc3[nH]ccc3c2n1C1CCN(Cc2ccccc2)CC1 [Example 167, 1-(1-Benzyl-piperidin-4-yl)-2-trifluoromethyl-1,6-dihydro-1,2,3,5,6-tetraaza-as-indacene] |
| 1390 | 312 | 330 | 25.3 | CC(C)c1nc2cnc3[nH]ccc3c2n1C1CCNCC1 [Example 168, 2-Isopropyl-1-piperidin-4-yl-1,6-dihydro-1,2,3,5,6-tetraaza-as-indacene] |
